According to ChEMBL document CHEMBL1201862, “PubChem BioAssay data set” (2004):
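Grown in 96-well plates, cells were treated for 48 hours with each compound at five concentrations. Insufficient inhibition: endpoint recorded as highest concentration tested. GI50 = concentration required for 50% inhibition of growth.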 The source made the active and inactive calls. Rule as the data show it: active = GI50 up to about 1.1 µM and inactive = higher.

What was measured:
Test in all cases: NCI tumour cell line growth inhibition, 48 h
[1] = test system: ACHN
[2] = test system: CAKI-1
[3] = test system: DU-145
[4] = test system: HCT-15
[5] = test system: HOP-92
[6] = test system: IGROV-1
[7] = test system: MDA-MB-435
[8] = test system: NCI-H522
[9] = test system: PC-3
[10] = test system: RPMI-8226
[11] = test system: SF-295
[12] = test system: SN12C
[13] = test system: SNB-19
[14] = test system: SNB-75
[15] = test system: SR
[16] = test system: SW-620
[17] = test system: TK-10
[18] = test system: UACC-62
[19] = test system: MDA-N
[20] = test system: OVCAR-3

Row | Structure (SMILES) | GI50 [1] | GI50 [2] | GI50 [3] | GI50 [4] | GI50 [5] | GI50 [6] | GI50 [7] | GI50 [8] | GI50 [9] | GI50 [10] | GI50 [11] | GI50 [12] | GI50 [13] | GI50 [14] | GI50 [15] | GI50 [16] | GI50 [17] | GI50 [18] | GI50 [19] | GI50 [20]
1 | COC1(OC)N=C(N)C2(C#N)C(C)CC(=O)N(N(C)C)C12C#N (stereo not drawn) | > 100 µM (inactive) | > 100 µM (inactive) | > 100 µM (inactive) | > 100 µM | > 100 µM (inactive) | > 100 µM (inactive) | > 100 µM (inactive) | > 100 µM (inactive) | > 100 µM (inactive) | > 100 µM (inactive) | > 100 µM (inactive) | > 100 µM (inactive) | > 100 µM (inactive) | 40.5 µM (inactive) | > 100 µM (inactive) | > 100 µM (inactive) | > 100 µM (inactive) | > 100 µM (inactive) |  | 
2 | Cn1c(=N)n[n+]([O-])c2ccccc21 | 4.9 µM (inactive) | 2.49 µM (inactive) | 2.26 µM (inactive) |  |  | 3.59 µM (inactive) | 0.541 µM (active) | 3.72 µM (inactive) | 5.6 µM (inactive) |  | 2.98 µM (inactive) | 1.84 µM (inactive) |  | 2.01 µM (inactive) |  | 2.12 µM (inactive) | 25.6 µM (inactive) | 1.09 µM (active) | 1.9 µM (inactive) | 0.895 µM (active)
3 | CCCCCCCCCCCCCCCCc1c(C(=O)OC)[nH]c(=S)[nH]c1=O | > 50 µM (inactive) | > 50 µM (inactive) |  | > 50 µM | 12.1 µM (inactive) | > 50 µM (inactive) |  | > 50 µM (inactive) |  | > 50 µM (inactive) | > 50 µM (inactive) | > 50 µM (inactive) | > 50 µM (inactive) | > 50 µM (inactive) | 0.0151 µM (active) | > 50 µM (inactive) | > 50 µM (inactive) | > 50 µM (inactive) |  | > 50 µM (inactive)
4 | COc1cc([C@H]2CC(=O)C[C@H](c3cc(OC)c(OC)c(OC)c3)C23C(=O)c2ccccc2C3=O)cc(OC)c1OC | 59.4 µM (inactive) | > 100 µM (inactive) | > 100 µM (inactive) | > 100 µM | 33.6 µM (inactive) | > 100 µM (inactive) | > 100 µM (inactive) | 25 µM (inactive) | > 100 µM (inactive) | > 100 µM (inactive) | 47.1 µM (inactive) | > 100 µM (inactive) | > 100 µM (inactive) |  | > 100 µM (inactive) | > 100 µM (inactive) | > 100 µM (inactive) | 43.1 µM (inactive) |  | 57 µM (inactive)
5 | C#CCN(N=O)C(=O)NC(CCCNC(=O)OCc1ccccc1)C(=O)OCc1ccccc1 (stereo not drawn) | > 100 µM (inactive) | 28.1 µM (inactive) |  | 76.4 µM | 30.9 µM (inactive) | > 100 µM (inactive) |  | 13.2 µM (inactive) |  | 63.2 µM (inactive) | > 100 µM (inactive) | > 100 µM (inactive) | > 100 µM (inactive) | > 100 µM (inactive) | 34.8 µM (inactive) | 55.8 µM (inactive) | > 100 µM (inactive) | > 100 µM (inactive) |  | > 100 µM (inactive)
6 | C=Cn1c([N+](=O)[O-])cnc1/C=C/c1ccc(C(=O)OCCN2CCOCC2)cc1 | > 100 µM (inactive) | > 100 µM (inactive) | > 100 µM (inactive) | > 100 µM | > 100 µM (inactive) | > 100 µM (inactive) | > 100 µM (inactive) | > 100 µM (inactive) | > 100 µM (inactive) | 12 µM (inactive) | > 100 µM (inactive) | > 100 µM (inactive) | > 100 µM (inactive) | > 100 µM (inactive) |  | > 100 µM (inactive) | > 100 µM (inactive) | > 100 µM (inactive) |  | > 100 µM (inactive)
7 | CCOC(=O)c1c(-c2ccccc2)c(OC)cn1C | > 10 µM (inactive) | > 10 µM (inactive) | > 10 µM (inactive) | > 10 µM |  | > 10 µM (inactive) | > 10 µM (inactive) | > 10 µM (inactive) | > 10 µM (inactive) | > 10 µM (inactive) | > 10 µM (inactive) | > 10 µM (inactive) | > 10 µM (inactive) | > 10 µM (inactive) |  | > 10 µM (inactive) | > 10 µM (inactive) | > 10 µM (inactive) | > 10 µM (inactive) | > 10 µM (inactive)
8 | COC1C(O)C(C)OC(O[C@H]2CC[C@@]3(C)C(CC[C@@H]4[C@@H]3CC[C@]3(C)[C@@H](C(C)OC5OC(CO)C(O)C(O)C5O)CC[C@]43O)C2)C1O (stereo partly drawn) | > 25 µM (inactive) | > 25 µM (inactive) |  | > 25 µM | > 25 µM (inactive) | > 25 µM (inactive) | > 25 µM (inactive) | > 25 µM (inactive) | > 25 µM (inactive) | > 25 µM (inactive) | > 25 µM (inactive) | > 25 µM (inactive) | > 25 µM (inactive) | > 25 µM (inactive) | > 25 µM (inactive) | > 25 µM (inactive) | > 25 µM (inactive) | > 25 µM (inactive) | > 25 µM (inactive) | > 25 µM (inactive)
